Experimental data as given in PMC8580319, “Dual activities of ACC synthase: Novel clues regarding the molecular evolution of ACS genes” (Science Advances, 2021).

Assays:
Test in all cases: pyruvate formation, […],4-dinitrophenylhydrazine, A520
Format in all cases: biochemical
Settings in all cases: Cβ-S lyase activity; 4 mM L-cystine, 100 μM PLP, 30°C
GmACS7-like = molecular target: T1, GmACS7-like (Glycine max, UniProt I1K634)
T1 construct: gene LOC100799562; recombinant, His or GST tag, from E. coli
T1 sequence (I1K634 1-440): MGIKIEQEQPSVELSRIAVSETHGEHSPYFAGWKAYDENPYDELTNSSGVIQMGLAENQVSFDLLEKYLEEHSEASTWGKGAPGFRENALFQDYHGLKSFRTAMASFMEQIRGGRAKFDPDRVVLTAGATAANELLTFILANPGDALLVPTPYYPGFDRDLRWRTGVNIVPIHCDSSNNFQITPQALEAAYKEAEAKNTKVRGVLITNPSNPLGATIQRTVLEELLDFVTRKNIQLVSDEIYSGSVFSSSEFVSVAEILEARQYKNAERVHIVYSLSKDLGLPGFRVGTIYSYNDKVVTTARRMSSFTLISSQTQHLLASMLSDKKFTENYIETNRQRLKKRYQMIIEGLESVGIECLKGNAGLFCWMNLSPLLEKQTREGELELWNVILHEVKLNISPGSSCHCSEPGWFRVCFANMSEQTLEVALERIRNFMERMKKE

SlACS4 = molecular target: T2, SlACS4 (Solanum lycopersicum, UniProt P29535)
T2 construct: gene ACS4; recombinant, His or GST tag, from E. coli
T2 sequence (P29535 whole entry): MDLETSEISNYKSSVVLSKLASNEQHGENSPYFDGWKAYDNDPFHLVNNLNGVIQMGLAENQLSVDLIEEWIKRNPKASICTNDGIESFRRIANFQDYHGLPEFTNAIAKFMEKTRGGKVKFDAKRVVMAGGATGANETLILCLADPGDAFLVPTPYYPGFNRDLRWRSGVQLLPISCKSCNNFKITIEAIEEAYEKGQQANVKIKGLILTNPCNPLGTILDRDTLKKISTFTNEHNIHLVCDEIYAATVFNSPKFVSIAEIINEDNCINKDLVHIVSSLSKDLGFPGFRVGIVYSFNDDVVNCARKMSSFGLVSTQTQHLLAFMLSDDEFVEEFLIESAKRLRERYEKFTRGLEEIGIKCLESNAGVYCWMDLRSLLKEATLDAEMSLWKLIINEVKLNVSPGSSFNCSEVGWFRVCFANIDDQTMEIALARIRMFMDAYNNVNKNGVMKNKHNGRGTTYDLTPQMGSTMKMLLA

AtACS7 = molecular target: T3, AtACS7 (Arabidopsis thaliana, UniProt Q9STR4, Q98A)
T3 construct: gene ACS7; recombinant from E. coli Rosetta 2 (DE3) pLysS; pET-28a (His) or pGEX-6p-1 (GST); His-tagged protein for crystals; dimer
T3 sequence (Q9STR4 1-447 Q98A): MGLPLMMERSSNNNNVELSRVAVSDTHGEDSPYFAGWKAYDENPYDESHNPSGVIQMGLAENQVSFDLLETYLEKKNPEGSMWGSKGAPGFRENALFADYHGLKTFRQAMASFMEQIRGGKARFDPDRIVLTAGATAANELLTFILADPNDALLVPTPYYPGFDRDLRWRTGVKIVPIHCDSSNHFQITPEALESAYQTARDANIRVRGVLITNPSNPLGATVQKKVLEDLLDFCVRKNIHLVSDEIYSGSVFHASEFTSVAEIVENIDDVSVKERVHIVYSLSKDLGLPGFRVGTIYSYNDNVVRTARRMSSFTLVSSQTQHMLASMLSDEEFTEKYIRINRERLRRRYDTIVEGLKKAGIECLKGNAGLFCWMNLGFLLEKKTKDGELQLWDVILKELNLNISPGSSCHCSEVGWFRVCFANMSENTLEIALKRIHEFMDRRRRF

**Q.** Which results are given for `N[C@@H](CSSC[C@H](N)C(=O)O)C(=O)O` [L-cystine]?
**A.** pyruvate formation, 2,4-dinitrophenylhydrazine, A520 (GmACS7-like): all of them had ACS and Cβ-S lyase dual enzymatic activities; pyruvate formation, 2,4-dinitrophenylhydrazine, A520 (SlACS4): all of them had ACS and Cβ-S lyase dual enzymatic activities; pyruvate formation, 2,4-dinitrophenylhydrazine, A520 (AtACS7): the mutant had high in vitro Cβ-S lyase activity
